Consider 89 compounds from a melting point compilation (Tetko et al.; mined from patent text by program, amines drawn as free bases though some values may be those of a salt).

By melting point is commonly meant the temperature, or range, at which the solid turns liquid.

`COc1ccc(C(=O)/C(Cc2cc(OC)c(OC)c(OC)c2)=C(/C(=O)O)c2ccc3c(c2)OCO3)cc1` showed a melting point of 192 to 193 °C. To `N#Cc1cc2nc(O)c(O)nc2cc1C(F)(F)F` belongs greater than 300 °C; to `CCCC1=C(C#N)C(c2cccc3c2OCCC3)c2c[nH]nc2N1` (centres undefined), 230 °C; to `CCOC(=O)C(C)Oc1ncn(-c2cccc(F)c2)n1` (centres undefined), 35 to 37 °C. With `Clc1ccccc1Oc1c(Cl)ncnc1Cl` the figure was 76 to 77 °C; with `[N-]=[N+]=NC1(c2ccccc2Cl)C(=O)Nc2ccc(Cl)cc21` (centres undefined), 178 °C; with `O=C(OCC1CC1)c1ncn2c1[C@@H]1CCCN1C(=O)c1c-2ccc(Cl)c1Cl`, 185 to 186 °C. To `O=C1c2c(Cl)cccc2-n2cnc(-c3nc(C4CC4)no3)c2[C@@H]2CCCN12` belongs 213 to 214 °C; to `O=C(NC[C@H]1CN(c2ccc3c(c2)CCCc2cn[nH]c2-3)C(=O)O1)C(F)F`, 147 to 150 °C. The compound `C[C@H](CN1CC(C#N)C1)NC(=O)c1c[nH]c2ncc(-c3nn(C)c4cc(Cl)ccc34)nc12` gave a melting point of 235 to 238 °C. With `CN(C)CCCNC(=S)Nc1ccccc1` the figure was 112 to 114 °C; with `CC(C)(CCCCOc1cc(-c2ccccc2)cc(-c2ccccc2)n1)c1nnn[nH]1`, 160 to 162 °C; with `C=CS(=O)(=O)c1cc2c(Nc3cccc(Br)c3)ncnc2cn1`, 214 to 217 °C.

`O=C(O)c1cccc(Oc2ccc(C(=O)c3ccc(F)cc3)cc2)c1` came in with a melting point of 158 to 160 °C. To `COc1ccc2c(c1)c(-c1[nH]c3ncccc3c1C)cn2C` belongs 237 °C. To `CN(C=O)c1ccccc1C(=O)COS(C)(=O)=O` belongs 67 to 69 °C.

Compound `CC(=O)NC1Cc2cccc3cccc(c23)C1` returned a melting point of 180 to 181 °C. In turn, `Nc1nc2c(ncn2CCC(COC=O)COC=O)c(=O)[nH]1` came in with a melting point of 195 to 198 °C. With `O=C(O)CCCOc1ccc2nc3c(cc2c1)CC(=O)N3`, the melting point stood at 260 °C. For the compound `CC(=O)c1ccc(-c2ccc(C(=O)NCCCCN3CCC(c4ccc5c(c4O)CCCC5)CC3)cc2)cc1`, the melting point was 180 to 185 °C. To `CCCOc1ccccc1-c1nc2c(CCCCc3ccccc3)cccc2c(=O)[nH]1` belongs 82 °C; to `CCC1(CC)CN(C(C)(C)C)C(=O)C(CC)(CC)N1OCc1ccccc1`, 83 to 85 °C; to `CCOC(=O)C(=O)Nc1nc(CN2CCN(C(c3ccccc3)c3ccccc3)CC2)cs1`, 125 to 128 °C. With `Cc1c(C)c2c(c(C)c1O)CCC(C)(C#Cc1cccc(C(F)(F)F)c1)O2` (centres undefined) the figure was 81 to 83 °C; with `CC(C)c1nc(CO)n(Cc2ccc([N+](=O)[O-])cc2)c1Sc1cc(Cl)cc(Cl)c1`, 192 to 194 °C; with `CCCCCCCCCC(=O)OC1CCC2(CC(=O)N(CCCCN3CCN(c4nsc5ccccc45)CC3)C(=O)C2)C1` (centres undefined), 117 to 119 °C.

As to `O=C(Nc1cn(C2CCCCO2)nc1C(=O)NCCCO)c1ccccn1` (centres undefined), the melting point was in the range of 139 to 140 °C. To `CN(C)CC(=O)N(C)c1ccc(OCC(=O)N[C@@H](CC(N)=O)C(=O)N[C@@H](Cc2ccccc2)[C@H](O)C(=O)N2CCC[C@H]2C(=O)NC(C)(C)C)cc1` belongs 129 to 135 °C; to `OCCNc1c2c(nc3cn[nH]c13)CCCC2`, 205 to 210 °C. As for `CCc1cc(C=Cc2nc3ccccc3o2)c(=O)[nH]c1C`, the melting point was in the range of 262 to 264 °C. With `COC(=O)C(C#N)=Cc1cccs1` the figure was 104 to 106 °C; with `Clc1cccc2c(CN3CC=C(/C=C/c4ccccc4)CC3)n[nH]c12`, 223 to 224 °C. With `CN(c1cccc(-c2ccnc3c([N+](=O)[O-])cnn23)c1)S(=O)(=O)c1ccccc1` the figure was 177 to 179 °C. With `CC(C)(Cc1ccc(OCCCC(=O)O)cc1)NCC(O)c1cc(O)cc2c1OCC(=O)N2` (centres undefined) the figure was 201 to 204 °C. In turn, `Cc1nc2c3c(ccn2c1C)[C@@H](OCC(F)(F)F)[C@H](O)[C@@H](c1ccccc1)N3` gave a melting point of 178 to 180 °C.

`Clc1ncc(-c2ccc3ccncc3c2)c2ccccc12` came in with a melting point of 169 to 170 °C. Turning to `CC(CN1CCC(C#N)C1)NC(=O)c1c[nH]c2ncc(-c3nn(C)c4cc(Cl)ccc34)nc12` (centres undefined), the melting point lay in the range of 206 to 209 °C. To `CCn1cc(Cl)nc(S(=O)(=O)CC(=O)Nc2ccccc2)c1=O` belongs 178 to 180 °C; to `COc1ccc(-n2nc(Cl)cc2-c2ccc(OCCNC(N)=O)cc2)cn1`, 156 to 158 °C; to `CCCCNS(=O)(=O)c1cc(C(=O)O)cc(Cl)c1Cl`, 160 to 165 °C. With `CC(C)(C)c1cccc(S(=O)(=O)n2c(Cc3ccc(C(=O)O)s3)cc3cc(C(F)(F)F)ccc32)c1` the figure was 110 °C; with `CC(C)c1c(C(=O)Cl)n(-c2ccc(F)cc2)c(=O)c2ccccc12`, 113 to 115 °C.

Compound `Cn1cc(-c2cc(-c3cnc4[nH]ccc4c3)ccn2)n(-c2ccc(C(C)(C)CN)cc2)c1=O` yielded a melting point of 91 °C. With `NC(=O)[C@@H]1C[C@@H]2C[C@@H]2N1C(=O)[C@@H](NC(=O)OCc1ccccc1)C12CC3CC(CC(O)(C3)C1)C2` the figure was 105 to 106 °C; with `CCn1c2ccccc2c2c3c(c(-c4ccccc4Cl)cc21)C(O)NC3=O` (centres undefined), 232 to 236 °C. `CC(C)(CCc1ccccc1)NCC(O)CO` (centres undefined): the melting point was in the range of 74 to 77 °C. `O=C1N=C(N2CCOCC2)SC1c1cncc(-c2cc(F)c(O)c(C34CC5CC(CC(C5)C3)C4)c2)c1` (centres undefined) came in with a melting point of 310 to 317 °C. On to `Cc1ccccc1CCOCC(=O)O`, for which the melting point was in the range of 47 to 48 °C. To `COc1cc(/C=C/C(=O)CC(=O)c2ccc(O)c(OC)c2)ccc1O` belongs 170 to 172 °C; to `CCCn1cnc(COc2nn3c(-c4ccccc4)nnc3cc2-c2ccccc2)n1`, 212 to 214 °C; to `CCc1c(C(=O)O)c(CC(=O)O)n(C)c1C(=O)c1ccc(Cl)cc1`, 211 to 212 °C. Regarding `O=C(c1ccccc1)c1ccc(S)cc1`, the melting point was 72 to 75 °C. To `Cc1ccc(O)c(NCCCN2CCN(C(c3ccccc3)c3ccccc3)CC2)c1` belongs 178 to 179 °C. With `COC1=CC(=O)c2c(O)c(CO)c(CC(C)O)c(O)c2C1=O` (centres undefined) the figure was 206 to 212 °C; with `O=C1c2ccccc2C2C(c3ccccc31)C2(F)F` (centres undefined), 150 °C. To `N#Cc1cnc2sc(-c3ccc(C=O)cc3)cc2c1Nc1ccc2[nH]ccc2c1` belongs greater than 260 °C; to `CCCC1(C)CC(=O)NC(=O)C1`, 110 to 112 °C. As for `CC1(C)NC(=O)CN1C(=O)CNC(=O)OCc1ccccc1`, the melting point was 135 to 136 °C.

Compound `Brc1cccc(-c2ccccc2)n1` registered a melting point of 50 °C.

Compound `C[N+]([O-])=C(Cn1ccnc1)c1cccs1` had a melting point of 162 to 164 °C. With `CCCc1ccc(COc2ccc3c(c2)CCC(CN2CC(C(=O)O)C2)=C3C)c(OC)c1` the figure was 158 to 163 °C; with `CCCCNC(=O)C(O[Si](C)(C)C(C)(C)C)c1ccccc1Br` (centres undefined), 38 to 39 °C; with `Cc1c(Cl)cccc1S(=O)(=O)Nc1ccc2c(c1)nc(C)n2-c1ccccc1`, 254 to 256 °C.

`O=S(=O)(c1ccccc1Cl)N1CCNc2ncc(I)cc21` showed a melting point of 146 to 147 °C. To `COC(=O)c1nc(OC)n(C)c1C(=O)OC` belongs 62 to 63 °C. To `O=C(NC1CCCCC1)N1C(=O)C2(CCCCC2)NC12CCCCC2` belongs 106 to 109 °C.

`CCc1ncc2n1N=C(c1ccc(N)cc1)c1cc3c(cc1C2)OCO3`: the melting point was in the range of 135 to 138 °C.

In turn, `Cc1ccc(C)c(C2=C(O)C(CC3CCS(=O)(=O)CC3)NC2=O)c1` (centres undefined) displayed a melting point of 244 to 246 °C. To `c1ccc(C(OC2CCN(CCCNc3ccc4ncnn4n3)CC2)c2ccccc2)cc1` belongs 136 to 138 °C; to `COc1cc(N2C(=O)c3ccccc3C2=O)ccc1-c1ccc(Cl)s1`, 194 to 195 °C. With `CCOCc1cc2ccc(OC)cc2oc1=O` the figure was 64 to 66 °C; with `CC(c1cc2cc(Cl)ccc2o1)N(O)C(N)=O` (centres undefined), 174 to 175 °C. To `COC(=O)CC(c1ccc(F)cc1)C(C(=O)OC)C(=O)OC` (centres undefined) belongs 75 to 76 °C. With `CC(=O)c1cc(C(N)=O)c(=O)[nH]c1C`, the melting point was greater than 320 °C. To `CCCCc1nn(-c2cc([N+](=O)[O-])ccc2Br)c(=O)n1Cc1ccc(-c2ccccc2S(=O)(=O)NC(C)(C)C)cc1F` belongs 137 to 139 °C; to `C[Si](C)(C)C#Cc1ccc2c(c1)NC(=O)CO2`, 142 °C; to `CC(C)(C)c1cc(C(c2ccc([N+](=O)[O-])cc2)N2CCCCC2)cc(C(C)(C)C)c1O` (centres undefined), 147 to 148 °C. Turning to `CN(C)c1ncc(C(=O)CNCC(O)c2cccc(OC(=O)C(C)(C)C)c2)c(-c2ccccc2)n1` (centres undefined), the melting point was 145 to 146 °C.

For `Cc1nc(Cc2ccccc2)cc(C(=O)O)c1OCCCN(C)C`, the melting point worked out at 157 °C. For the compound `CCOC(=O)c1cccc(C(=O)O)c1`, the melting point was in the range of 131 to 132 °C.

In turn, `COc1ccc(OC)c2c1C(=O)C=C(SCCCCCCCCCCC(=O)O)C2=O` gave a melting point of 146 to 147 °C. Take `COCC(=O)Nc1c(Cl)c(C)cc2nc(OC)c(OC)nc12`: the melting point fell in the range of 170 to 171 °C. For `CCCCc1nc2ccccc2n1CCC(=O)O`, the melting point fell in the range of 177 to 178 °C. With `CC(C)OP(=O)(CCCCC1(C(=O)NCC(F)(F)F)c2ccccc2-c2ccccc21)OC(C)C`, the melting point is 91 to 94 °C. To `CCOC(=O)c1cc2ccccc2nn1` belongs 158 to 160 °C; to `Cc1noc(NS(=O)(=O)c2ccc(-c3ccccc3)cc2)c1Cl`, 129 to 132 °C. `O=C1OC(CCI)C(O)=C1O` (centres undefined) gave a melting point of 150 to 151 °C. The compound `CCOC(=O)c1ccc(OCCC2CN(c3ccc(SC)nn3)CCO2)cc1` (centres undefined) came in with a melting point of 111 °C. With `N#Cc1cnc2cnc(F)cc2c1Oc1ccc(Cl)cc1F` the figure was 186 to 188 °C.
